Results: PubChem BioAssay (NCI)
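How tested: cells in 96-well plates exposed to compound for 48 hours at five concentrations. TGI denotes the concentration required for complete inhibition of growth.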

Legend:
Assay in all cases: inhibition of tumour cell growth, NCI panel, 48 h
[1] = system: OVCAR-3 ovarian
[2] = system: RPMI-8226 leukemia
[3] = system: A549 NSCLC
[4] = system: OVCAR-5 ovarian
[5] = system: TK-10 renal
[6] = system: SK-MEL-2 melanoma
[7] = system: SNB-75 CNS
[8] = system: SNB-19 CNS
[9] = system: SK-OV-3 ovarian
[10] = system: HCT-15 colon
[11] = system: HOP-92 NSCLC
[12] = system: UO-31 renal
[13] = system: OVCAR-4 ovarian
[14] = system: SK-MEL-28 melanoma
[15] = system: SN12C renal
[16] = system: MOLT-4 leukemia
[17] = system: MALME-3M melanoma
[18] = system: CAKI-1 renal
[19] = system: U251 CNS
[20] = system: BT-549 breast
[21] = system: MDA-MB-435
[22] = system: MCF7 breast
[23] = system: SK-MEL-5 melanoma
[24] = system: NCI-H522 lung
[25] = system: PC-3 prostate
[26] = system: KM12 colon
[27] = system: NCI-H460 lung
[28] = system: HT29 colon
[29] = system: EKVX NSCLC
[30] = system: LOX IMVI melanoma
[31] = system: SF-539 CNS
[32] = system: A498 renal
[33] = system: T-47D breast
[34] = system: OVCAR-8 ovarian
[35] = system: COLO 205 colon
[36] = system: K-562 leukemia
[37] = system: RXF 393 renal
[38] = system: NCI-H23 lung
[39] = system: M14 melanoma
[40] = system: SR leukemia
[41] = system: HOP-62 NSCLC
[42] = system: HL-60(TB) leukemia
[43] = system: IGROV1 ovarian
[44] = system: MDA-MB-231 breast
[45] = system: HS 578T breast
[46] = system: SF-268 CNS
[47] = system: SF-295 CNS
[48] = system: SW-620 colon
[49] = system: NCI/ADR-RES ovarian
[50] = system: UACC-62 melanoma
[51] = system: 786-0 renal
[52] = system: ACHN renal
[53] = system: CCRF-CEM leukemia
[54] = system: DU-145 prostate
[55] = system: UACC-257 melanoma

COc1ccc(CC2COc3cc(O)cc(O)c3C2=O)cc1O (stereo not given)
TGI [1]: 6.87 µM
TGI [2]: 28.5 µM
TGI [3]: > 100 µM
TGI [4]: > 100 µM
TGI [5]: > 100 µM
TGI [6]: > 100 µM
TGI [7]: 6.98 µM
TGI [8]: > 100 µM
TGI [9]: 38.6 µM
TGI [10]: > 100 µM
TGI [11]: > 100 µM
TGI [12]: > 100 µM
TGI [13]: > 100 µM
TGI [14]: > 100 µM
TGI [15]: > 100 µM
TGI [16]: > 100 µM
TGI [17]: > 100 µM
TGI [18]: > 100 µM
TGI [19]: > 100 µM
TGI [20]: > 100 µM
TGI [21]: 3.68 µM
TGI [22]: > 100 µM
TGI [23]: > 100 µM
TGI [24]: > 100 µM
TGI [25]: > 100 µM
TGI [26]: 43.9 µM
TGI [27]: > 100 µM
TGI [28]: 27.5 µM
TGI [29]: > 100 µM
TGI [30]: > 100 µM
TGI [31]: 10.1 µM
TGI [32]: > 100 µM
TGI [33]: > 100 µM
TGI [34]: > 100 µM
TGI [35]: 43.8 µM
TGI [36]: > 100 µM
TGI [37]: > 100 µM
TGI [38]: > 100 µM
TGI [39]: > 100 µM
TGI [40]: > 100 µM
TGI [41]: > 100 µM
TGI [42]: > 100 µM
TGI [43]: > 100 µM
TGI [44]: > 100 µM
TGI [45]: > 100 µM
TGI [46]: > 100 µM
TGI [47]: 24.1 µM
TGI [48]: > 100 µM
TGI [49]: 8.78 µM
TGI [50]: > 100 µM
TGI [51]: 92.3 µM
TGI [52]: > 100 µM
TGI [53]: > 100 µM
TGI [54]: 68.1 µM
TGI [55]: > 100 µM
